Reference: patent US11878970B2, “Allosteric chromenone inhibitors of phosphoinositide 3-kinase (PI3K) for the treatment of disease” (Petra Pharma Corporation, priority 2021, dated 2024)

Legend:
[1] = biological target: T1, PI3K-α (PIK3CA) H1047R mutant, p110α/p85α complex (Homo sapiens, UniProt P42336, H1047R); assay: PI3K-alpha kinase (PIK3CA) biochemical activity, ADP-Glo, H1047R mutant; settings: Soy PI lipid substrate
T1 construct: Recombinant, catalytically active human full length PIK3KA Wild-type and H1047R mutant; 6×His (N); purchased EMD Millipore Sigma 14-792M
Procedure, shortened: (§1)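 ADP formation measured by ADP-Glo luminescence after reaction at 27 °C to about 10% ATP turnover, using 20 uM ATP, 50 uM PIP2diC8 or soy PI lipid, HEPES pH 7.4 with MgCl2. Enzyme (1-5 nM WT or H1047R p110α/p85α) and compound preincubated 1 h first; 10-point 1:3 curves fitted four-parameter for IC50.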

[2] = biological target: T2, PI3K-α (PIK3CA) wild-type (WT), p110α/p85α complex (Homo sapiens, UniProt P42336); assay: PI3K-alpha kinase (PIK3CA) biochemical activity, ADP-Glo, wild-type; settings: Soy PI lipid substrate
T2 construct: Recombinant, catalytically active human full length PIK3KA Wild-type and H1047R mutant; 6×His (N); purchased EMD Millipore Sigma 14-602M
Procedure, shortened: as §1

[3] = biological target: PI3K-α (PIK3CA) in MDA-MB-453 cells (Homo sapiens, UniProt P42336); assay: PI3K-alpha kinase (PIK3CA) in vitro cell based assay, MDA-MB-453 cells, SureFire Ultra AlphaLisa; settings: read-out: PI3K-α (PIK3CA) in vitro cell based assay IC50
Protocol: PI3K-Alpha Kinase (PIK3CA) Activity In Vitro Cell Based Assay and Determining IC50 Values for Inhibitors
The MDA-MB-453 (ATCC-HTB-131) cell line was obtained from the American Type Culture Collection (Manassas, VA). Cells were maintained in Dulbecco's Modified Eagle Media (DMEM, Gibco 11965-092) supplemented with 10% Fetal Bovine Serum, heat inactivated (FBS HI, Gibco 10082-147), 1× non-essential amino acids (NEAA, Gibco 11140-050), and 1 mM sodium pyruvate (Gibco 11360-070). Cultures were maintained in a humidified incubator at 37° C. under 5% CO2/95% air.
For compound testing in 0% FBS, MDA-MB-453 cells were seeded at a density of 1.5×10^4 cells per well in white 384-well plates in 20 μl of Minimum Essential Media (MEM) assay media with 1×NEAA, 1 mM sodium pyruvate, and 1 μg/mL human insulin (Sigma I9278). Compounds dissolved in 10 mM stock solutions in DMSO were serially diluted 1:3 in DMSO to generate a 10-point dilution series and plated using an acoustic liquid handler system (Echo 550 Series Liquid Handler, Labcyte). A 5× intermediate compound dilution plate in MEM with 1×NEAA and 1 mM sodium pyruvate (150 μM starting compound concentration in 1.5% DMSO) was then prepared. Five μl of the intermediate serially diluted compounds were added to the cell plate to final concentrations ranging from […] in 0.3% DMSO. 0.3% DMSO alone was used to establish the maximum (MAX) signal and GDC-0032 at a final concentration of 1 μM was used as a reference compound for the minimum (MIN) signal. After 3 hours treatment, the medium was removed, and the cells lysed in 10 μL of 1× SureFire Lysis buffer with shaking for 10 minutes at room temperature. The Acceptor Mix (Reaction Buffer 1+Reaction Buffer 2+Activation Buffer+SureFire Ultra Acceptor Beads) was prepared by diluting Activation buffer 25-fold in combined Reaction Buffer 1 and Reaction Buffer 2. The Acceptor beads were diluted 50-fold in the combined Reaction Buffers. Five μL of Acceptor Mix was added to each well, the plate was sealed and covered with foil and incubated for 1 hour at room temperature. The Donor Mix (dilution buffer+SureFire Ultra Donor Beads) was prepared by diluting Donor Beads 50-fold in dilution buffer. Five μL of the Donor Mix was added to each well and the plate sealed and covered with foil and incubated for 1 hour at room temperature in the dark. The plates were read on a Neo2 plate reader instrument from Biotek using standard AlphaLisa settings. Compounds were tested in duplicate and the average % inhibition at each compound concentration was used to generate a single dose response curve. The data were processed using the Genedata-Screener tool. Relative IC50 values were determined using luminescence units by calculating percent inhibition with respect to the in-plate “MIN” (GDC-0032 reference control) and “MAX” (DMSO) controls. The data was analyzed using a 4-parameter nonlinear logistic equation (four-parameter logistic concentration-response curve): Y=bottom+[(top−bottom)/1+(X/IC50)slope] where Y=% inhibition, X=concentration of inhibitor, bottom=minimum value of y attained by curve-fit, top=maximum value of y attained by curve-fit and slope=steepness of curve at the IC50. % Inhibition=[(signal at X−median Min)/(median Max−median Min)]×100 IC50: concentration of compound that reduces a given response (ligand binding, enzyme response) by 50%. Relative IC50: concentration giving half the compound's maximum response.

T1 sequence (P42336 whole entry H1047R): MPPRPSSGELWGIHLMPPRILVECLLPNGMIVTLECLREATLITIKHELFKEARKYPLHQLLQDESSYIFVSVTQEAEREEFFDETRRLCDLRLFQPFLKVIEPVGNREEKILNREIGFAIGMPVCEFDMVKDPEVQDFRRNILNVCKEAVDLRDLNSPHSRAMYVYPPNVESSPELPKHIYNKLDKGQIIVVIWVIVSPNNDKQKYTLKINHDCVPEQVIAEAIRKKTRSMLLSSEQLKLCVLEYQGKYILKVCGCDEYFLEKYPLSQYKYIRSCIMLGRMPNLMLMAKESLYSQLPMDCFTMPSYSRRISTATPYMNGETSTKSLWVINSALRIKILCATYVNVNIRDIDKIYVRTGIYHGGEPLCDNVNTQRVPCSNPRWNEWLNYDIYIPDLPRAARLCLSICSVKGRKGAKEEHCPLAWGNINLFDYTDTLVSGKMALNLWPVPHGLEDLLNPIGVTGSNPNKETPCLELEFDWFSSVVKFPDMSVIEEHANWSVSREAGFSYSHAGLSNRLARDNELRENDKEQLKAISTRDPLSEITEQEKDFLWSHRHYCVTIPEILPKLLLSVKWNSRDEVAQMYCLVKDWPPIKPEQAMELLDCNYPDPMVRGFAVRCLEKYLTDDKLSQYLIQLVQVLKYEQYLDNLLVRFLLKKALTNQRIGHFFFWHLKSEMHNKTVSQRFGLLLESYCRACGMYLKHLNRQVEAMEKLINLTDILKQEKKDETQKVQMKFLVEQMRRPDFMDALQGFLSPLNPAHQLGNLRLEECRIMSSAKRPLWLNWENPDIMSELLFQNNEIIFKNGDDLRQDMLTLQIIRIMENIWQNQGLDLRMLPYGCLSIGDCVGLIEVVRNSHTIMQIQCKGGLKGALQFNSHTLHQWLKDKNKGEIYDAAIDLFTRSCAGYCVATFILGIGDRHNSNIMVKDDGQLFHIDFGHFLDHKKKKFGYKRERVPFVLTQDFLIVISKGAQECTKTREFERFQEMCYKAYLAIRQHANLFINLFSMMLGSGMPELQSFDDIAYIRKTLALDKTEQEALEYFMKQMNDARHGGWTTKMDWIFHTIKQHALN
T1 sequence (P27986 whole entry partner): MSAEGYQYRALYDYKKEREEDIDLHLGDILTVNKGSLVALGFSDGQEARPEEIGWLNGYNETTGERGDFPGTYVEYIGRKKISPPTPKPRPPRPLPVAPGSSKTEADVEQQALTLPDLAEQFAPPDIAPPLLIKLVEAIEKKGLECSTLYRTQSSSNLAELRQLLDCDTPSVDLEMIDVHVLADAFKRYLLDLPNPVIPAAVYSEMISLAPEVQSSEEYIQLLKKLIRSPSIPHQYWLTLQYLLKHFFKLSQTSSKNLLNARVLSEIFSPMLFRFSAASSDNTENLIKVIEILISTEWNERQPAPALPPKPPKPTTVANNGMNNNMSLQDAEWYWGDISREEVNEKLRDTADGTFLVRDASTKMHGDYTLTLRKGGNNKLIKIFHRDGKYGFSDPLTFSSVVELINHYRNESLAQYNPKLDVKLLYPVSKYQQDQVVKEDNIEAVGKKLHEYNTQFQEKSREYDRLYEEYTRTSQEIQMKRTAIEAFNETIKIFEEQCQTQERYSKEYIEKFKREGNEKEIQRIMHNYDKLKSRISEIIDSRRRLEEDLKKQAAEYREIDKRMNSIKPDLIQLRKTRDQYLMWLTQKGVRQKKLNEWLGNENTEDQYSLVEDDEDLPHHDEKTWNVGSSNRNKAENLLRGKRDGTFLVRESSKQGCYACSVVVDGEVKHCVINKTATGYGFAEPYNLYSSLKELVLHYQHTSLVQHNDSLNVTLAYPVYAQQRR
PI3K-α (PIK3CA) in MDA-MB-453 cells, sequence (P27986 2-724): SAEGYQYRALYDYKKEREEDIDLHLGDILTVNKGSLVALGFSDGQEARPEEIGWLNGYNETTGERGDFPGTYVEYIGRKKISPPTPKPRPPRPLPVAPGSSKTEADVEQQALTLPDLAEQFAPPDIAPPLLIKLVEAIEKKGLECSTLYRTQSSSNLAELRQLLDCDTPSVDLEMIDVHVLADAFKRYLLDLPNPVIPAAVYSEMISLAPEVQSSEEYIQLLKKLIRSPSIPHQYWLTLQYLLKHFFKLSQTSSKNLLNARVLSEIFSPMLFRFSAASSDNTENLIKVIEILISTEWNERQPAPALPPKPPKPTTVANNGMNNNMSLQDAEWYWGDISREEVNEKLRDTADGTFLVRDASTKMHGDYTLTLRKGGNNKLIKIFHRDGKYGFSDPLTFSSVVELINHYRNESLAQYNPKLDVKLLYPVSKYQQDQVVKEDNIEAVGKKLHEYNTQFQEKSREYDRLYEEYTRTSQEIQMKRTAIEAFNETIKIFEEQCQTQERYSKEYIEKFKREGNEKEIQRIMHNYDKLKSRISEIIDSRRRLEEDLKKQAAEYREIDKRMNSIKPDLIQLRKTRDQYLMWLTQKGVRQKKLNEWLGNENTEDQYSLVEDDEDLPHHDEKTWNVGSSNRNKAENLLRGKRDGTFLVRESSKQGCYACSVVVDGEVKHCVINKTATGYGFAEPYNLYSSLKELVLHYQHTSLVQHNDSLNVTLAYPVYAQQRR
PI3K-α (PIK3CA) in MDA-MB-453 cells, sequence (P42336 whole entry): as the sequence (P42336 whole entry H1047R) above, with R1047H counted along it

Row | SMILES | IC50 [1] [nM] | IC50 [2] [nM] | IC50 [3] [nM]
1 | Cc1cc(C(C)Nc2ccccc2C(=O)O)c2oc(-c3ccc4nc(C(F)(F)F)cn4c3)cc(=O)c2c1 (single isomer, unassigned) [Example 70, 2-[1-[6-Methyl-4-oxo-2-[2-(trifluoromethyl)imidazo[1,2-a]pyridin-6-yl]chromen-8-yl]ethylamino]benzoic acid] | < 500 | 1000 to 5000 | 50 to 100
2 | CC(Nc1ccc(Cl)nc1C(=O)O)c1cc(C(F)(F)F)cc2c(=O)cc(-c3ccc4cnn(C)c4c3)oc12 (single isomer, unassigned) [Example 108, 6-Chloro-3-[1-[2-(1-methylindazol-6-yl)-4-oxo-6-(trifluoromethyl)chromen-8-yl]ethylamino]pyridine-2-carboxylic acid] | < 500 | 500 to 1000 | < 50
3 | Cc1cc(C(C)Nc2cccc(F)c2C(=O)O)c2oc(-c3cc(C)c4nn(C)cc4c3)cc(=O)c2c1 (single isomer, unassigned) [Example 190, 2-[1-[2-(2,7-Dimethylindazol-5-yl)-6-methyl-4-oxo-chromen-8-yl]ethylamino]-6-fluoro-benzoic acid] | < 500 | 500 to 1000 | 50 to 100
4 | Cc1cc(C(C)Nc2ccccc2C(=O)O)c2oc(-c3cnn4ccccc34)cc(=O)c2c1 (single isomer, unassigned) [Example 125, 2-[1-(6-Methyl-4-oxo-2-pyrazolo[1,5-a]pyridin-3-yl-chromen-8-yl)ethylamino]benzoic acid] | < 500 | 1000 to 5000 | < 50
5 | Cc1cc(C(C)Nc2ccccc2C(=O)O)c2oc(-c3ccc4[nH]ncc4c3)cc(=O)c2c1 (single isomer, unassigned) [Example 60, 2-[1-[2-(1H-Indazol-5-yl)-6-methyl-4-oxo-chromen-8-yl]ethylamino]benzoic acid] | < 500 | 500 to 1000 | < 50
6 | Cc1cc(C(C)Nc2ccccc2C(=O)O)c2oc(-c3ccc4c(c3)NC(=O)C4)cc(=O)c2c1 (single isomer, unassigned) [Example 115, 2-[1-[6-Methyl-4-oxo-2-(2-oxoindolin-6-yl)chromen-8-yl]ethylamino]benzoic acid] | < 500 | 1000 to 5000 | 100 to 500
7 | Cc1cc([C@@H](C)Nc2cccc(F)c2C(=O)O)c2oc(-c3ccc4c(cnn4C)c3)cc(=O)c2c1 [Example 197, 2-Fluoro-6-[[(1R)-1-[6-methyl-2-(1-methylindazol-5-yl)-4-oxo-chromen-8-yl]ethyl]amino]benzoic acid] | < 500 | 500 to 1000 | < 50
8 | CC(Nc1ccccc1C(=O)O)c1cc(F)cc2c(=O)cc(-c3ccc4nn(C)cc4c3)oc12 (single isomer, unassigned) [Example 55, 2-[1-[6-Fluoro-2-(2-methylindazol-5-yl)-4-oxo-chromen-8-yl]ethylamino]benzoic acid] | < 500 | 1000 to 5000 | < 50
9 | Cc1cc(C(C)Nc2ccccc2C(=O)O)c2oc(-c3ccc4nc(C)sc4c3)cc(=O)c2c1 (single isomer, unassigned) [Example 74, 2-[1-[6-Methyl-2-(2-methyl-1,3-benzothiazol-6-yl)-4-oxo-chromen-8-yl]ethylamino]benzoic acid] | < 500 | 500 to 1000 | < 50
10 | Cc1cc([C@@H](C)Nc2ccccc2C(=O)O)c2oc(-c3cc4cnccc4s3)c(C)c(=O)c2c1 [Example 203, 2-[[(1R)-1-(3,6-Dimethyl-4-oxo-2-thieno[3,2-c]pyridin-2-yl-chromen-8-yl)ethyl]amino]benzoic acid] | < 500 | < 500 | < 50
11 | Cc1cc(C(C)Nc2ccccc2C(=O)O)c2oc(-c3ccc4c(cnn4C)c3)c(C)c(=O)c2c1 (single isomer, unassigned) [Example 150, 2-[1-[3,6-Dimethyl-2-(1-methylindazol-5-yl)-4-oxo-chromen-8-yl]ethylamino]benzoic acid] | < 500 | < 500 | < 50
12 | Cc1cc(C(C)Nc2ccccc2C(=O)O)c2oc(-c3ccc4nc(C)cn4c3)cc(=O)c2c1 (single isomer, unassigned) [Example 37, 2-[1-[6-Methyl-2-(2-methylimidazo[1,2-a]pyridin-6-yl)-4-oxo-chromen-8-yl]ethylamino]benzoic acid] | > 10000 | 1000 to 5000 | > 500

Now from value to compound:

Row | IC50 [1] [nM] | IC50 [2] [nM] | IC50 [3] [nM] | SMILES
13 | 500 to 1000 | 500 to 1000 | > 500 | Cc1cc(-c2cc(=O)c3cc(C(F)(F)F)cc(C(C)Nc4ccc(Cl)nc4C(=O)O)c3o2)cc2cn(C)nc12 (single isomer, unassigned) [Example 192, 6-Chloro-3-[1-[2-(2,7-dimethylindazol-5-yl)-4-oxo-6-(trifluoromethyl)chromen-8-yl]ethylamino]pyridine-2-carboxylic acid]
14 | < 500 | 500 to 1000 | < 50 | Cc1cc([C@@H](C)Nc2ccc(C(F)(F)F)nc2C(=O)O)c2oc(-c3ccc4nn(C)cc4c3)c(C)c(=O)c2c1 [Example 236, 3-[[(1R)-1-[3,6-Dimethyl-2-(2-methylindazol-5-yl)-4-oxo-chromen-8-yl]ethyl]amino]-6-(trifluoromethyl)pyridine-2-carboxylic acid]
15 | 500 to 1000 | 1000 to 5000 | 100 to 500 | Cc1cc([C@@H](C)Nc2cccnc2C(=O)O)c2oc(-c3ccc4nn(C)cc4c3)cc(=O)c2c1 [Example 226, 3-[[(1R)-1-[6-Methyl-2-(2-methylindazol-5-yl)-4-oxo-chromen-8-yl]ethyl]amino]pyridine-2-carboxylic acid]
16 | < 500 | 500 to 1000 | < 50 | Cc1cc([C@@H](C)Nc2ccccc2C(=O)O)c2oc(-c3ccc4nc(C)oc4c3)c(C)c(=O)c2c1 [Example 261, 2-[[(1R)-1-[3,6-Dimethyl-2-(2-methyl-1,3-benzoxazol-6-yl)-4-oxo-chromen-8-yl]ethyl]amino]benzoic acid]
17 | < 500 | 500 to 1000 | 100 to 500 | Cc1cc(C(C)Nc2cccc(F)c2C(=O)O)c2oc(-c3ccc4cnn(C)c4c3)cc(=O)c2c1 (single isomer, unassigned) [Example 222, 2-fluoro-6-[1-[6-methyl-2-(1-methylindazol-6-yl)-4-oxo-chromen-8-yl]ethylamino]benzoic acid]
18 | < 500 | 500 to 1000 | 50 to 100 | Cc1cc(C(C)Nc2ccccc2C(=O)O)c2oc(-c3ccc4nc(C#N)ccc4c3)cc(=O)c2c1 (single isomer, unassigned) [Example 207, 2-[1-[2-(2-Cyano-6-quinolyl)-6-methyl-4-oxo-chromen-8-yl]ethylamino]benzoic acid]
19 | 1000 to 5000 | 1000 to 5000 | > 500 | Cc1cc(C(C)Nc2ccc(Cl)nc2C(=O)O)c2oc(-c3ccc4c(cnn4C)c3)cc(=O)c2c1 (single isomer, unassigned) [Example 217, 6-Chloro-3-[1-[6-methyl-2-(1-methylindazol-5-yl)-4-oxo-chromen-8-yl]ethylamino]pyridine-2-carboxylic acid]
